The values that follow come from patent publication US5114961A, “2,5-diaryl tetrahydrofurans and analogs thereof as PAF antagonists” (Merck & Co., Inc., priority 1990, dated 1992).

Molecules are shown by their SMILES.

The target of this test is T1, PAF specific receptor binding site (human platelet membranes) (Homo sapiens, UniProt P25105).
T1 construct: platelet membranes at a drug concentration of 3 nM; from tissue; host or cells: human platelet plasma membranes
In words: Inhibition of [3H]N-methylcarbamoyl-PAF binding to human platelet membranes. The settings on record: drug concentration of 3 nM, trans configuration. As to the method: The ability of a compound of formula (I) to inhibit the PAF binding to its specific receptor binding site on rabbit or human platelet or PMN plasma membranes was measured by a recently developed assay.
The inhibition of ^3 [H]-PAF or ^3 [H]-N-methyl carbamoyl-TAF binding to the human or rabbit platelet or PMN plasma membrane by a PAF antagonist of formula (I) was determined by a method employing isotopic labeling and filtration techniques. Generally, a series of Tris-buffered solutions of the selected antagonist at predetermined concentrations were prepared. Each of these solutions contains 1 pmole of ^3 H-PAF, a known amount of the test antagonist, and a sufficient amount of the pH 7.5 Tris-buffer solution (10mM Tris, 0.25% bovine serum albumin, and 150 mM NaCl per ml water) to make the final volume of 1 ml. After adding into a set of test tubes each with 100 μg of the platelet plasma membrane suspension (S. B. Hwang, et. al., Biochemistry, Vol. 22 pp. 4756-4763, 1983) and one of the Tris-buffer solutions described above, the resulting mixture in each test tube was incubated at 0° C. for about one hours or until the reaction was complete. Two control samples, one of which (C1) contains all the ingredients described above except the antagonist and the other (C2) contains C1 plus a 100-fold excess of unlabeled PAF, were also prepared and incubated simultaneously with the test samples. After the incubation was completed, the contents of each test tube were filtered under vacuo through a Whatman GF/C fiberglass filter and the residue washed rapidly several times with a total of 20 ml cold (0°-5° C.) Tris-buffer solution. Each washed residue was then suspended in 10 ml scintillation solution (Aquasol 2, New England Nuclear, Conn.) and the radioactivity was counted in a Packard Tri-Carb 460CD Liquid Scintillation System. Defining the counts from a test sample as "Total binding with antagonist"; the counts from the control sample C1, as "Total binding C1 "; and the counts from the control sample C2 as "non-specific binding C2 ", the percent inhibition of each test antagonist can be determined by the following equations: [formula]

T1 sequence (P25105 whole entry): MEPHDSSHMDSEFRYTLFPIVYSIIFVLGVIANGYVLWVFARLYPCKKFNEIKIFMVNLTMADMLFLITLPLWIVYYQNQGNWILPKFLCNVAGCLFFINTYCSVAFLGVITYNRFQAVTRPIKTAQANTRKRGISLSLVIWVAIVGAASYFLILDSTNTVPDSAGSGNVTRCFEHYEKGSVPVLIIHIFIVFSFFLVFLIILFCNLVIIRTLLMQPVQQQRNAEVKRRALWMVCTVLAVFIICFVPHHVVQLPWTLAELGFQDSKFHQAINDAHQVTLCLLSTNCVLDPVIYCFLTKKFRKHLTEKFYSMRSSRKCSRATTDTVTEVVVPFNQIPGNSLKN

With `CCCS(=O)(=O)c1cc([C@@H]2CC[C@@H](c3cc(OC)c(OC)c(OC)c3)O2)cc(OCCN2CCOCC2)c1OCCCCCCO` (relative stereo) [trans-2-[3-n-Propylsulfonyl-4-(6-hydroxy-n-hexyloxy)-5-{2-(1-morpholino)-ethoxy}phenyl]5-(3,4,5-trimethoxyphenyl)tetrahydrofuran], the inhibition (usually the percentage by which the read-out fell short of the control) at 0.003 µM was determined as 55%.

Regarding `CCCS(=O)(=O)c1cc([C@@H]2CC[C@@H](c3cc(OC)c(OC)c(OC)c3)O2)cc(OC)c1OCCSc1ncc[nH]1` (relative stereo) [trans-2-[3-n-Propylsulfonyl-4-{2-(2-imidazolthio)ethoxy}-5-methoxyphenyl]-5-(3,4,5-trimethoxyphenyl) tetrahydrofuran], the inhibition at 0.003 µM is 60%.

Molecule `CCCS(=O)(=O)c1cc([C@@H]2CC[C@@H](c3cc(OC)c(OC)c(OC)c3)O2)cc(OC)c1OCCSc1nc[nH]n1` (relative stereo) [trans-2-[3-n-Propylsulfonyl-4-{2-(3-triazolthio)ethoxy}-5-methoxyphenyl]-5-(3,4,5-trimethoxyphenyl) tetrahydrofuran] returned an inhibition at 0.003 µM of 23%.

In the case of `CCCS(=O)(=O)c1cc([C@@H]2CC[C@@H](c3cc(OC)c(OC)c(OC)c3)O2)cc(OC)c1OCCSc1ccc(-c2nn[nH]n2)cc1` (relative stereo) [trans-2-[3-n-Propylsulfonyl-4-{2-(4-(2-tetrazo)phenylthio)ethoxy}-5-methoxyphenyl]-5-(3,4,5-trimethoxyphenyl)tetrahydrofuran], the inhibition at 0.003 µM came to 52%.

Turning to `CCCS(=O)(=O)c1cc([C@H]2CC[C@H](c3cc(OC)c(OC)c(OC)c3)O2)cc(OC)c1OCCSc1ccc(C(=N)N)cc1` (relative stereo) [trans-2-[3-n-Propylsulfonyl-4-{2-(4-amidinophenylthio)ethoxy}-5-methoxyphenyl]-5-(3,4,5-trimethoxyphenyl)tetrahydrofuran], the inhibition at 0.003 µM stood at 60%.

In turn, `CCCS(=O)(=O)c1cc([C@H]2CC[C@H](c3cc(OC)c(OC)c(OC)c3)O2)cc(OC)c1OCCSc1ccc(C#N)cc1` (relative stereo) [trans-2-[3-n-Propylsulfonyl-4-{2-(4-cyanophenylthio)ethoxy}-5-methoxyphenyl]-5-(3,4,5-trimethoxyphenyl) tetrahydrofuran] showed an inhibition at 0.003 µM of 93%.

Molecule `CCCS(=O)(=O)c1cc([C@H]2CC[C@H](c3cc(OC)c(OC)c(OC)c3)O2)cc(OC)c1OCCSc1ccc(N(C)C)cc1` (relative stereo) [trans-2-[3-n-Propylsulfonyl-4-{2-(4-dimethylaminophenylthio)ethoxy}-5-methoxyphenyl]-5-(3,4,5-trimethoxyphenyl)tetrahydrofuran] returned an inhibition at 0.003 µM of 66%.

With `CCCS(=O)(=O)c1cc([C@H]2CC[C@H](c3cc(OC)c(OC)c(OC)c3)O2)cc(OC)c1OCCSc1ccncc1` (relative stereo) [trans-2-[3-n-Propylsulfonyl-4-{2-(4-pyridylthio)ethoxy}-5-methoxyphenyl]-5-(3,4,5-trimethoxyphenyl) tetrahydrofuran], the inhibition at 0.003 µM was determined as 73%.

The molecule `CCCS(=O)(=O)c1cc([C@@H]2CC[C@@H](c3cc(OC)c(OC)c(OC)c3)O2)cc(OC)c1OCCS(=O)(=O)c1ccccc1` (relative stereo) [trans-2-[3-n-Propylsulfonyl-4-{2-(Phenylsulfonyl)ethoxy}-5-methoxyphenyl]-5-(3,4,5-trimethoxyphenyl(tetrahydrofuran] yielded an inhibition at 0.003 µM of 73%.

The molecule `CCCS(=O)(=O)c1cc([C@@H]2CC[C@@H](c3cc(OC)c(OC)c(OC)c3)O2)cc(OCCCN2CCOCC2)c1OCCCCCCO` (relative stereo) [trans-2-]3-n-Propylsulfonyl-4-(6-hydroxyhexyloxy)-5-{3-(1-morpholino)n-propoxy}phenyl]-5-trimethoxyphenyl)tetrahydrofuran] returned an inhibition at 0.003 µM of 48%.

On to `CCCOc1c(OCCCc2cccnc2)cc([C@H]2CC[C@H](c3cc(OC)c(OC)c(OC)c3)O2)cc1S(=O)(=O)CC(C)=O` (relative stereo) [trans-2-{3-(2-Oxopropylsulfonyl)-4-n-propoxy-5-[3-(3-pyridyl)propoxy}phenyl]-5-(3,4,5-trimethoxyphenyl) tetrahydrofuran], for which the inhibition at 0.003 µM worked out at 62%.

Take `CCCOc1c(OCCCN2CCOCC2)cc([C@@H]2CC[C@@H](c3cc(OC)c(OC)c(OC)c3)O2)cc1S(=O)(=O)CC(C)=O` [(-)-(2S,5S)-[3-(2-Oxopropylsulfonyl)-4-n-propoxy-5-{3-(1-morpholino)-n-propoxy}phenyl]-5-(3,4,5-trimethoxyphenyl)tetrahydrofuran]: at 0.003 µM the inhibition was 41%.
